Assay results taken from US11969730B2, “Apparatus for sensor-based examination of biological cells” (FRAUNHOFER-GESELLSCHAFT ZUR FÖRDERUNG DER ANGEWANDTEN …, priority 2017, dated 2024).

What was measured:
HaCaT cells [1] = test: impedimetric toxicity study (cytotoxicity assay) with confluent HaCaT cells on electrode array; assay type: cell-based, human; details: 32 kHz; increasing concentrations; applied 24 h after thawing or seeding; 37° C.; cryopreserved (7 days, −80° C.) and newly seeded cells
Experimental: IZI at 32 kHz for confluent HaCaT cells that were incubated (cytotoxicity assay) at the time t=0 h with increasing concentrations of CdCl2.
The cell density was identical in both cases. Increasing concentrations of the heavy metal salt CdCl2 served as the chemical model toxin. The assay was carried out 24 h after thawing, respectively seeding.
The cell response to the addition of CdCl2 is documented with reference to the time profile of the normed impedance at a measurement frequency of 32 kHz. […] The time developments, also highly characteristic of the impedance after the addition of CdCl2 to the confluent cell layers for every concentration of CdCl2 for the cryopreserved cells are indistinguishably similar to those of the newly seeded cells.

HaCaT cells [2] = test: impedimetric readout of adhesion of HaCaT cells to the electrode surface after cryopreservation and thawing; assay type: cell-based, human; details: 10% by volume in the freezing medium; cryopreservation over 5 weeks at −80° C.; capacitance at 40 kHz
Experimental: The cell density on the sensor surface is 450,000 cells/cm^2 (T=37° C.) in both cases. The decrease in the capacitance reflects the increasing electrode coverage.
To check the viability state of the frozen cells and then thawed again, the kinetics of the adhesion of human skin cells (keratinocytes, HaCaT cells) to the electrode surface (of gold) after a cryopreservation of more than five weeks at −80° C. were tracked directly after thawing (revitalization) with time resolution via an impedimetric readout (see FIG. 2A). The time development of the capacitance C of the total system at a measurement frequency of 40 kHz is in linear dependence on the occupation of the electrode with adherent cells and thus reflects the progressing process of the cell adhesion.
The culture medium is modeled on the freezing medium after revitalizing the cells in the chemical composition. Variable DMSO contents were selected to freeze the cells to be able to directly optimize the freezing medium for the respective cell line.

Row | Compound | time profile of the normed impedance after addition of CdCl2 (HaCaT cells [1]) | effect on the cell viability after thawing (HaCaT cells [2])
1 | [Cl][Cd][Cl] [CdCl2] | decreases in dependence on the dosage | –
2 | C[S+](C)[O-] [DMSO] | – | no negative effect
